Source: US20020151568A1, “Piperidinylethyl-, phenoxyethyl-, and beta-fluorophenethyl-substituted thiourea compounds with potent anti-HIV activity” (priority 2000, published 2002)
pIC50: −log10 of the molar value. Like-named read-outs stand apart in the source and are kept apart here.

Columns and labels:
HIV-1 strain HTLVIIIB = experiment: Inhibition of HIV-1 HTLVIIIB replication in PBMC (p24 antigen EIA); format: cell-based; settings: HIV-1 strain HTLVIIIB in human PBMC, p24 EIA on 7th day after infection; for pIC50: read-out: IC50 [HTL VIIIB]
Description: The cells were then infected with virus at a multiplicity of infection (MOI) of 0.1 during a one-hour adsorption period at 37° C. in a humidified 5% CO2 atmosphere. Subsequently, cells were cultured in 96-well microplates (100 μL/well; 2×10^6 cells/mL, triplicate wells) in the presence of various inhibitor concentrations. […] Ag. […] The applied p24 EIA was the unmodified kinetic assay commercially available from Coulter Corporation/Immunotech, Inc. (Westbrook, Me.).
To test the therapeutic activity of the compounds of the invention, p24 assays were utilized as previously described. […] 1 during a one-hour adsorption period at 37° C. in a humidified 5% CO2 atmosphere. Subsequently, cells were cultured in 96-well microliter plates ([…]; 2×10^6 cells/mL, triplicate wells) in the presence of various inhibitor concentrations. Aliquots of culture supernatants were removed from the wells on the 7th day after infection for p24 antigen p24 enzyme immunoassays (EIA).
The applied p24 EIA was the unmodified kinetic assay commercially available from Coulter Corporation/Immunotech, Inc. (Westbrooke, Me.), which utilizes a murine monoclonal antibody to HIV core protein coated onto microwell strips to which the antigen present in the test culture supernatant samples binds. Percent inhibition of viral replication was calculated by comparing the p24 values from the test substance treated infected cells with p24 values from untreated infected cells (i.e., virus controls).

[1] = tested on: human peripheral blood mononuclear cells (PBMC); experiment: Microculture Tetrazolium Assay (MTA, XTT) for cell viability of non-infected PBMC; format: cell-based; settings: 7 days, read-out: CC (cytotoxic concentration, CC50)
Description: In parallel, the effects of various treatments on cell viability were also examined, as described in Enrice et.al., supra. In brief, non-infected PBNWC were treated with each compound for 7 days under identical experimental conditions. A Microculture Tetrazolium Assay (MTA), using 2,3-bis(2-methoxy-4nitro-5-sulfophenyl)-5-[(phenylarnino)-carbonyl]-2H-tetrazolium hydroxide (XTT), was performed to quantitate cellular proliferation.

[2] = tested on: HIV-1 strain RT-MDR (V106A); experiment: Inhibition of replication of NNI-resistant HIV-1 strain RT-MDR in H9 cells; format: cell-based
Description: (§1) The ability of Compounds 4 (HI-516), 11 (HI-566), and 12 (HI-565) to inhibit the replication of NNI-resistant HIV-1 strains, A17 (Y181C) and RT-MDR (V106A), was analyzed. The anti-HIV activity of the compounds was measured by determining their ability to inhibit the replication of HIV-1 strains A17 in PBMC from healthy volunteer donors and RT-MDR in H9 cells.
(§2) Compounds 4, 11, and 12 were compared with nevirapine or delavirdine, two known non-nucleoside reverse transcriptase inhibitors of HIV-1 RT.

HIV-1 strain A17 (Y181C) = experiment: Inhibition of replication of NNI-resistant HIV-1 strain A17 in PBMC; format: cell-based; settings: for pIC50: read-out: IC50 A17 (Y181C)
Description: as §1, §2

[3] = RT-MDR in H9 cells, read-out: IC50 RT-MDR (V106A)
[4] = A17 in PBMC from healthy volunteer donors
[5] = Human immunodeficiency virus 1, H9, read-out: IC50 RT-MDR (V106A)
[6] = Human immunodeficiency virus 1, PBMC

FC(CNC(=S)Nc1ccc(Cl)cn1)c1ccccc1 (stereo not drawn) [Compound 11, β-Fluoro[2-phenethyl]-N′-[2-(5-chloropyridyl)] thiourea]
IC50 [HTL VIIIB] (HIV-1 strain HTLVIIIB): subnanomolar
pIC50 (HIV-1 strain HTLVIIIB): > 9.00
CC50 [1]: 30000 nM
IC50 RT-MDR (V106A) ([2]; RT-MDR in H9 cells): submicromolar
pIC50 [2, 3]: 7.00
pIC50 (HIV-1 strain A17 (Y181C); [4]): 7.00

CC1CCCCN1CCCNC(=S)Nc1ccc(Cl)cn1 (stereo not drawn) [Compound 7, N-[3-(2-methylpiperidinylpropyl)]-N′-[2-(5-chloropyridyl)]-thiourea]
pIC50 (HIV-1 strain HTLVIIIB; Human immunodeficiency virus 1): 9.00
melting point: 117 to 118 °C

Cc1ccnc2c1NC(=O)c1cccnc1N2C1CC1 [Nevirapine, reference compound]
pIC50 [2, 5]: 5.85
pIC50 (HIV-1 strain A17 (Y181C); [6]): 4.67

CC1CCCCN1CCNC(=S)Nc1ccc(Br)cn1 (stereo not drawn) [Compound 4, N-[2-(2-methylpiperidinylethyl)]-N′-[2-(5-bromopyridyl)]-thiourea]
pIC50 (HIV-1 strain HTLVIIIB): > 9.00
CC50 [1]: 50000 nM
IC50 RT-MDR (V106A) ([2]; RT-MDR in H9 cells): less active than nevirapine or delavirdine
pIC50 [2, 3]: 5.72
IC50 A17 (Y181C) (HIV-1 strain A17 (Y181C); [4]): not active
pIC50 (HIV-1 strain A17 (Y181C); [4]): < 4.00

S=C(NCCN1CCCCC1)Nc1ccccn1 [Compound 1]
pIC50 (HIV-1 strain HTLVIIIB): < 4.00

CC(C)Nc1cccnc1N1CCN(C(=O)c2cc3cc(NS(C)(=O)=O)ccc3[nH]2)CC1 [Delavirdine, reference compound]
pIC50 [2, 5]: 6.40
pIC50 (HIV-1 strain A17 (Y181C); [6]): 4.30

S=C(NCCN1CCCCC1)Nc1ccc(Br)cn1 [Compound 2, N-[2-(1-piperidinylethyl)]-N′-[2-(5-bromopyridyl)]-thiourea]
IC50 [HTL VIIIB] (HIV-1 strain HTLVIIIB): nanomolar concentrations
pIC50 (HIV-1 strain HTLVIIIB): 8.70

FC(CNC(=S)Nc1ccc(Br)cn1)c1ccccc1 (stereo not drawn) [Compound 12, β-Fluoro[2-phenethyl]-N′-[2-(5-bromopyridyl)]thiourea]
IC50 [HTL VIIIB] (HIV-1 strain HTLVIIIB): subnanomolar
pIC50 (HIV-1 strain HTLVIIIB): > 9.00
CC50 [1]: 50000 nM
IC50 RT-MDR (V106A) ([2]; RT-MDR in H9 cells): submicromolar
pIC50 [2, 3]: 6.70
pIC50 (HIV-1 strain A17 (Y181C); [4]): 7.00

S=C(NCCN1CCCCC1)Nc1ccc(Cl)cn1 [Compound 5, N-[2-(1-piperidinylethyl)]-N′-[2-(5-chloropyridyl)]-thiourea]
IC50 [HTL VIIIB] (HIV-1 strain HTLVIIIB): nanomolar concentrations
pIC50 (HIV-1 strain HTLVIIIB): 9.00

S=C(NCCc1ccccn1)Nc1ccc(Br)cn1 [Trovirdine, reference compound]
pIC50 (HIV-1 strain HTLVIIIB): 8.15
CC50 [1]: 100000 nM

S=C(NCCOc1ccccc1)Nc1ccc(Cl)cn1 [Compound 9, N-[2-(Phenoxy)ethyl]-N′-[2-(5-chloropyridyl)]thiourea]
pIC50 (HIV-1 strain HTLVIIIB): 8.40
CC50 [1]: > 100000 nM

S=C(NCCOc1ccccc1)Nc1ccc(Br)cn1 [Compound 10, N-[2-(Phenoxy)ethyl]-N′-[2-(5-bromopyridyl)] thiourea]
pIC50 (HIV-1 strain HTLVIIIB): 8.30
CC50 [1]: 92000 nM

CC1CCCN(CCNC(=S)Nc2ccc(Br)cn2)C1 (stereo not drawn) [Compound 3, N-[2-(3-methylpiperidinylethyl)]-N′-[2-(5-bromopyridyl)]-thiourea]
pIC50 (HIV-1 strain HTLVIIIB): 7.10

S=C(NCCOc1ccccc1)Nc1ccccn1 [Compound 8, N-[2-(Phenoxy)ethyl]-N′-[2-(pyridyl)]thiourea]
pIC50 (HIV-1 strain HTLVIIIB): 8.30
CC50 [1]: 55000 nM

CC1CCCN(CCNC(=S)Nc2ccc(Cl)cn2)C1 (stereo not drawn) [Compound 6, N-[2-(3-methylpiperidinylethyl)]-N′-[2-(5-chloropyridyl)]-thiourea]
pIC50 (HIV-1 strain HTLVIIIB): 7.70
